The record followed here is ChEMBL document CHEMBL2021830, “Chlorinated englerins with selective inhibition of renal cancer cell growth” (2012).

What all share (format): functional
The subject of one assay is 786-0. Kind of assay: Growth inhibition of human 786-0 cells after 48 hrs by SRB assay. (Sulforhodamine B stains cellular protein and so reports cell mass.)
A further assay relates to A498. Kind of assay: Growth inhibition of human A498 cells after 48 hrs.
A further assay deals with ACHN. Kind of assay: Growth inhibition of human ACHN cells after 48 hrs by SRB assay.
In another assay the test system is CAKI-1. Kind of assay: Growth inhibition of human CAKI-1 cells after 48 hrs by SRB assay.
In a further assay the test system is RXF 393. Kind of assay: Growth inhibition of human RXF393 cells after 48 hrs by SRB assay.
For the next assay, the system named is SN12C. Kind of assay: Growth inhibition of human SN12C cells after 48 hrs by SRB assay.
In another assay the test system is TK-10. Kind of assay: Growth inhibition of human TK10 cells after 48 hrs by SRB assay.
The subject of another assay is UO-31. Kind of assay: Growth inhibition of human UO31 cells after 48 hrs.

Structures are written as SMILES.

`CC(C)[C@@]12C[C@@H](OC(=O)CO)[C@@](C)(O1)[C@@H]1CC[C@@H](C)[C@H]1[C@@H]2OC(=O)C(Cl)C(O)c1ccccc1` (single isomer, unassigned): the GI50 (usually the concentration that inhibits growth by half) came out at 11000 nM with 786-0; 660 nM in the assay with A498; 1400 nM in the assay with ACHN; 5000 nM with CAKI-1; 390 nM in the assay with RXF 393; 4700 nM in the assay with SN12C. The values for the GI50 in the assay on TK-10 and with UO-31 were 27000 nM and 1900 nM, respectively.

Regarding `CC(C)[C@@]12C[C@@H](OC(=O)CO)[C@@](C)(O1)[C@@H]1CC[C@@H](C)[C@H]1[C@@H]2OC(=O)C(Cl)C(O)c1ccccc1` (single isomer, unassigned; epimer 1), the GI50 was 1700 nM in the assay on 786-0; 180 nM in the assay with A498; 320 nM with ACHN; 460 nM in the assay with CAKI-1; 510 nM in the assay with RXF 393 (Homo sapiens, RXF 393, 48 h); 630 nM with SN12C. Besides, the GI50 in the assay on TK-10 (Homo sapiens, TK-10, 48 h) is 17000 nM; with UO-31, 250 nM.

Consider `CC(C)[C@@]12C[C@@H](OC(=O)CO)[C@@](C)(O1)[C@@H]1CC[C@@H](C)[C@H]1[C@@H]2OC(=O)C(Cl)C(Cl)c1ccccc1` (single isomer, unassigned; epimer 2), for which the GI50 in the assay with A498 worked out at 67 nM; in the assay with ACHN, 49 nM; with CAKI-1 it was 160 nM; in the assay on SN12C it was 1000 nM; in the assay with TK-10, 25000 nM; in the assay with UO-31 it was 160 nM.

Consider `CC(C)[C@@]12C[C@@H](OC(=O)CO)[C@@](C)(O1)[C@@H]1CC[C@@H](C)[C@H]1[C@@H]2OC(=O)/C(Cl)=C/c1ccccc1`, for which the GI50 came to 10000 nM in the assay with 786-0 (Homo sapiens, 786-0, 48 h); 28 nM with A498 (Homo sapiens, A498, 48 h); 41 nM in the assay on ACHN (Homo sapiens, ACHN, 48 h); 390 nM with CAKI-1 (Homo sapiens, CAKI-1, 48 h); 59 nM in the assay on RXF 393 (Homo sapiens, RXF 393, 48 h); 560 nM in the assay on SN12C (Homo sapiens, SN12C, 48 h). For the same molecule, the GI50 with TK-10 (Homo sapiens, TK-10, 48 h) was determined as 21000 nM; in the assay on UO-31 (Homo sapiens, UO-31, 48 h) it was 35 nM.

Consider `CC(C)[C@@]12C[C@@H](OC(=O)CO)[C@@](C)(O1)[C@@H]1CC[C@@H](C)[C@H]1[C@@H]2OC(=O)C(Cl)C(Cl)c1ccccc1` (single isomer, unassigned; epimer 1), for which the GI50 in the assay with 786-0 (Homo sapiens, 786-0, 48 h) was determined as 12000 nM; with A498, 140 nM; with ACHN, 140 nM; with CAKI-1, 420 nM; in the assay with SN12C (Homo sapiens, SN12C, 48 h), 930 nM; with TK-10 (Homo sapiens, TK-10, 48 h), 18000 nM. Besides, growth in the assay with UO-31 was halved (GI50) at 390 nM.
